Reference: patent US8138168B1 (Takeda Pharmaceutical Company Limited, priority 2007, dated 2012)

Molecular target: T1, Recombinant human renin (Homo sapiens, UniProt P00797)
T1 construct: isolate the active form (residues 67-406); made in house; host or cells: FreeStyle 293-F cells (transient expression of pcDNA3.1(+)/hREN)
T1 sequence (P00797 67-406): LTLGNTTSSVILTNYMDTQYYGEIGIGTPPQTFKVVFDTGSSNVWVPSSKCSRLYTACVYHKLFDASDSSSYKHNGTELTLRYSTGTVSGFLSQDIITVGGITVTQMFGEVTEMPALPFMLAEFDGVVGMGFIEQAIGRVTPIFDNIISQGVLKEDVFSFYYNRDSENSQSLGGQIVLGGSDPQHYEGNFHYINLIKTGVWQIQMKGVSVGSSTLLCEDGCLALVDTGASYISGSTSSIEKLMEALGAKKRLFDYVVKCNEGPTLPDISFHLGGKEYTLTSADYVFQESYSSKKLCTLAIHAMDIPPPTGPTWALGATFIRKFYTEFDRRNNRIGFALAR
Assay: In vitro enzymatic activity assay of renin inhibitors (fluorogenic peptide substrate)
Assay type: biochemical
Conditions: read-out: IC50 of Exemplified Compounds Against Renin
Procedure, shortened: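 Enzyme: recombinant human renin, 3 nM final, 10 min compound pre-incubation at 37 °C; buffer 50 mM Hepes pH 7.4 with 0.1 mg/mL BSA or extra 2% BSA; 5% DMSO.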

Question: For CC(=O)NCCn1c([C@@H]2CCCN(C(=O)C[C@H](N)Cc3ccc(-c4ccc5c(c4)OC(F)(F)O5)cc3)C2)nc2c(C)cccc21 [Compound 474, N-(2-(2-((R)-1-((R)-3-amino-4-(4-(2,2-difluorobenzo[d][1,3]dioxol-5-yl)phenyl)butanoyl)piperidin-3-yl)-4-methyl-1H-benzo[d]imidazol-1-yl)ethyl)acetamide], which IC50 is on record?
Answer: 100 to 1000 nM

Question: Which IC50 does the source give for CC(=O)NCCn1c([C@@H]2CCCN(C(=O)C[C@H](N)Cc3ccc(-c4ccc5c(c4)OCCN5C)cc3)C2)nc2c(C)cccc21 [Compound 475, N-(2-(2-((R)-1-((R)-3-amino-4-(4-(4-methyl-3,4-dihydro-2H-benzo[b][1,4]oxazin-7-yl)phenyl)butanoyl)piperidin-3-yl)-4-methyl-1H-benzo[d]imidazol-1-yl)ethyl)acetamide] here?
Answer: 100 to 1000 nM

Question: For CC(=O)NCCn1c([C@@H]2CCCN(C(=O)C[C@H](N)Cc3ccc(-c4ccc5c(c4)OCCO5)cc3)C2)nc2c(C)cccc21 [Compound 477, N-(2-(2-((R)-1-((R)-3-amino-4-(4-(2,3-dihydrobenzo[b][1,4]dioxin-6-yl)phenyl)butanoyl)piperidin-3-yl)-4-methyl-1H-benzo[d]imidazol-1-yl)ethyl)acetamide], which IC50 is on record?
Answer: 100 to 1000 nM

Question: For CC(=O)NCCn1c([C@@H]2CCCN(C(=O)C[C@H](N)Cc3ccc(-c4ccc(O)nc4)cc3)C2)nc2c(Cl)cccc21 [Compound 478, N-(2-(2-((R)-1-((R)-3-amino-4-(4-(6-hydroxypyridin-3-yl)phenyl)butanoyl)piperidin-3-yl)-4-chloro-1H-benzo[d]imidazol-1-yl)ethyl)acetamide], which IC50 is on record?
Answer: 100 to 1000 nM

Question: CC(=O)NCCn1c([C@@H]2CCCN(C(=O)C[C@H](N)Cc3ccc(-c4ccc(N)nc4)cc3)C2)nc2c(Cl)cccc21 [Compound 479, N-(2-(2-((R)-1-((R)-3-amino-4-(4-(6-aminopyridin-3-yl)phenyl)butanoyl)piperidin-3-yl)-4-chloro-1H-benzo[d]imidazol-1-yl)ethyl)acetamide] was tested. Which IC50 did it give?
Answer: < 100 nM

Question: How did the IC50 turn out when NC(=O)CCn1c([C@@H]2CCCN(C(=O)C[C@H](N)Cc3ccc(-c4ccc(N)nc4)cc3)C2)nc2ccccc21 [Compound 480, 3-(2-((R)-1-((R)-3-amino-4-(4-(6-aminopyridin-3-yl)phenyl)butanoyl)piperidin-3-yl)-1H-benzo[d]imidazol-1-yl)propanamide] was run?
Answer: 100 to 1000 nM

Question: With NC(=O)CCn1c([C@@H]2CCCN(C(=O)C[C@H](N)Cc3ccc(-c4cnc(N)nc4)cc3)C2)nc2ccccc21 [Compound 481, 3-(2-((R)-1-((R)-3-amino-4-(4-(2-aminopyrimidin-5-yl)phenyl)butanoyl)piperidin-3-yl)-1H-benzo[d]imidazol-1-yl)propanamide] as the molecule, how does the IC50 read?
Answer: 100 to 1000 nM

Question: How did the IC50 turn out when NC(=O)CCn1c([C@@H]2CCCN(C(=O)C[C@H](N)Cc3ccc(-c4ccc5c(c4)OC(F)(F)O5)cc3)C2)nc2ccccc21 [Compound 483, 3-(2-((R)-1-((R)-3-amino-4-(4-(2,2-difluorobenzo[d][1,3]dioxol-5-yl)phenyl)butanoyl)piperidin-3-yl)-1H-benzo[d]imidazol-1-yl)propanamide] was run?
Answer: 100 to 1000 nM

Question: For NC(=O)CCn1c([C@@H]2CCCN(C(=O)C[C@H](N)Cc3ccc(-c4ccc5c(c4)OCCO5)cc3)C2)nc2ccccc21 [Compound 484, 3-(2-((R)-1-((R)-3-amino-4-(4-(2,3-dihydrobenzo[b][1,4]dioxin-6-yl)phenyl)butanoyl)piperidin-3-yl)-1H-benzo[d]imidazol-1-yl)propanamide], which IC50 is on record?
Answer: > 1000 nM

Question: For NC(=O)CCn1c([C@@H]2CCCN(C(=O)C[C@H](N)Cc3ccc(-c4ccccc4)cc3)C2)nc2ccccc21 [Compound 485, 3-(2-((R)-1-((R)-3-amino-4-(biphenyl-4-yl)butanoyl)piperidin-3-yl)-1H-benzo[d]imidazol-1-yl)propanamide], which IC50 is on record?
Answer: > 1000 nM

Question: With CC(=O)Nc1ccc(-c2ccc(C[C@@H](N)CC(=O)N3CCC[C@@H](c4nc5ccccc5n4CCC(N)=O)C3)cc2)cc1 [Compound 486, 3-(2-((R)-1-((R)-4-(4′-acetamidobiphenyl-4-yl)-3-aminobutanoyl)piperidin-3-yl)-1H-benzo[d]imidazol-1-yl)propanamide] as the molecule, how does the IC50 read?
Answer: 100 to 1000 nM

Question: For COc1ccc(-c2ccc(C[C@@H](N)CC(=O)N3CCC[C@@H](c4nc5ccccc5n4CCC(N)=O)C3)cc2)cc1 [Compound 487, 3-(2-((R)-1-((R)-3-amino-4-(4′-methoxybiphenyl-4-yl)butanoyl)piperidin-3-yl)-1H-benzo[d]imidazol-1-yl)propanamide], which IC50 is on record?
Answer: 100 to 1000 nM

Question: Which IC50 does the source give for NC(=O)CCn1c([C@@H]2CCCN(C(=O)C[C@H](N)Cc3ccc(-c4ccncc4)cc3)C2)nc2ccccc21 [Compound 488, 3-(2-((R)-1-((R)-3-amino-4-(4-(pyridin-4-yl)phenyl)butanoyl)piperidin-3-yl)-1H-benzo[d]imidazol-1-yl)propanamide] here?
Answer: 100 to 1000 nM

Question: How did the IC50 turn out when NC(=O)CCn1c([C@@H]2CCCN(C(=O)C[C@H](N)Cc3ccc(-c4ccc(Cl)cc4)cc3)C2)nc2ccccc21 [Compound 489, 3-(2-((R)-1-((R)-3-amino-4-(4′-chlorobiphenyl-4-yl)butanoyl)piperidin-3-yl)-1H-benzo[d]imidazol-1-yl)propanamide] was run?
Answer: > 1000 nM

Question: For COCCCn1c([C@@H]2CCCN(C(=O)C[C@H](N)Cc3ccc(-c4ccc5c(c4)CCO5)cc3)C2)nc2c(F)cccc21 [Compound 490, (R)-3-amino-4-(4-(2,3-dihydrobenzofuran-5-yl)phenyl)-1-((R)-3-(4-fluoro-1-(3-methoxypropyl)-1H-benzo[d]imidazol-2-yl)piperidin-1-yl)butan-1-one], which IC50 is on record?
Answer: < 100 nM

Question: For COCCCn1c([C@@H]2CCCN(C(=O)C[C@H](N)Cc3ccc(-c4ccc(NC(C)=O)cc4)cc3)C2)nc2c(F)cccc21 [Compound 491, N-(4′-((R)-2-amino-4-((R)-3-(4-fluoro-1-(3-methoxypropyl)-1H-benzo[d]imidazol-2-yl)piperidin-1-yl)-4-oxobutyl)biphenyl-4-yl)acetamide], which IC50 is on record?
Answer: < 100 nM

Question: How did the IC50 turn out when COCCCn1c([C@@H]2CCCN(C(=O)C[C@H](N)Cc3ccc(-c4ccc(OC)cc4)cc3)C2)nc2c(F)cccc21 [Compound 492, (R)-3-amino-1-((R)-3-(4-fluoro-1-(3-methoxypropyl)-1H-benzo[d]imidazol-2-yl)piperidin-1-yl)-4-(4′-methoxybiphenyl-4-yl)butan-1-one] was run?
Answer: < 100 nM

Question: COCCCn1c([C@@H]2CCCN(C(=O)C[C@H](N)Cc3ccc(-c4ccc5c(c4)CCO5)cc3)C2)nc2c(C)cccc21 [Compound 493, (R)-3-amino-4-(4-(2,3-dihydrobenzofuran-5-yl)phenyl)-l-((R)-3-(1-(3-methoxypropyl)-4-methyl-1H-benzo[d]imidazol-2-yl)piperidin-1-yl)butan-1-one] was tested. Which IC50 did it give?
Answer: < 100 nM

Question: How did the IC50 turn out when COCCCn1c([C@@H]2CCCN(C(=O)C[C@H](N)Cc3ccc(-c4ccc5occc5c4)cc3)C2)nc2c(C)cccc21 [Compound 494, (R)-3-amino-4-(4-(benzofuran-5-yl)phenyl)-1-((R)-3-(1-(3-methoxypropyl)-4-methyl-1H-benzo[d]imidazol-2-yl)piperidin-1-yl)butan-1-one] was run?
Answer: < 100 nM

Question: How did the IC50 turn out when COCCCn1c([C@@H]2CCCN(C(=O)C[C@H](N)Cc3ccc(-c4ccc5c(c4)CC(=O)N5)cc3)C2)nc2c(C)cccc21 [Compound 495, 5-(4-((R)-2-amino-4-((R)-3-(1-(3-methoxypropyl)-4-methyl-1H-benzo[d]imidazol-2-yl)piperidin-l-yl)-4-oxobutyl)phenyl)indolin-2-one] was run?
Answer: < 100 nM

Question: How did the IC50 turn out when COCCCn1c([C@@H]2CCCN(C(=O)C[C@H](N)Cc3ccc(-c4ccc5c(c4)SCC(=O)N5)cc3)C2)nc2c(C)cccc21 [Compound 496, 7-(4-((R)-2-amino-4-((R)-3-(1-(3-methoxypropyl)-4-methyl-1H-benzo[d]imidazol-2-yl)piperidin-1-yl)-4-oxobutyl)phenyl)-2H-benzo[b][1,4]thiazin-3(4H)-one] was run?
Answer: < 100 nM

Question: Which IC50 does the source give for COCCCn1c([C@@H]2CCCN(C(=O)C[C@H](N)Cc3ccc(-c4ccc5c(c4)OCC(=O)N5)cc3)C2)nc2c(C)cccc21 [Compound 497, 7-(4-((R)-2-amino-4-((R)-3-(1-(3-rnethoxypropyl)-4-methyl-1H-benzo[d]imidazol-2-yl)piperidin-1-yl)-4-oxobutyl)phenyl)-2H-benzo[b][1,4]oxazin-3(4H)-one] here?
Answer: < 100 nM

Question: How did the IC50 turn out when COCCCn1c([C@@H]2CCCN(C(=O)C[C@H](N)Cc3ccc(-c4ccc5c(c4)CC(=O)N5C)cc3)C2)nc2c(C)cccc21 [Compound 498, 5-(4-((R)-2-amino-4-((R)-3-(1-(3-methoxypropyl)-4-methyl-1H-benzo[d]imidazol-2-yl)piperidin-1-yl)-4-oxobutyl)phenyl)-1-methylindolin-2-one] was run?
Answer: < 100 nM

Question: With COCCCn1c([C@@H]2CCCN(C(=O)C[C@H](N)Cc3ccc(-c4ccc5[nH]ncc5c4)cc3)C2)nc2c(C)cccc21 [Compound 499, (R)-4-(4-(1H-indazol-5-yl)phenyl)-3-amino-1-((R)-3-(1-(3-methoxypropyl)-4-methyl-1H-benzo[d]imidazol-2-yl)piperidin-1-yl)butan-1-one] as the molecule, how does the IC50 read?
Answer: < 100 nM

Question: COCCCn1c([C@@H]2CCCN(C(=O)C[C@H](N)Cc3ccc(-c4ccc5[nH]nc(N)c5c4)cc3)C2)nc2c(C)cccc21 [Compound 500, (R)-3-amino-4-(4-(3-amino-1H-indazol-5-yl)phenyl)-1-((R)-3-(1-(3-methoxypropyl)-4-methyl-1H-benzo[d]imidazol-2-yl)piperidin-1-yl)butan-1-one] was tested. Which IC50 did it give?
Answer: < 100 nM
